According to ChEMBL document CHEMBL4265923, “In vitro and in vivo characterization of a novel, highly potent p53-MDM2 inhibitor” (Bioorg Med Chem Lett, 2018):

Legend:
SJSA-1 [1] = assay: Antiproliferative activity against human SJSA1 cells after 72 hrs by YO-PRO-1 iodide staining-based assay; type: functional; conditions: SJSA-1, 72 h
[2] = Intrinsic clearance in rat liver microsomes; type: ADME, microsome
[3] = Half life in rat liver microsomes; type: ADME, microsome
[4] = Intrinsic clearance in human liver microsomes; type: ADME, microsome
[5] = Intrinsic clearance in mouse liver microsomes; type: ADME, microsome
[6] = Tmax in nude rat xenografted with human SJSA1 cells at 1 to 5 mg/kg, po qd; type: ADME, organism-based; conditions: in vivo
SJSA-1 [7] = assay: Antitumor activity against human SJSA1 cells xenografted in nude rat assessed as tumor regression at 5 mg/kg, po qd for 14 days; type: functional
Rattus norvegicus [8] = assay: Upregulation of MDM2 mRNA expression level in po dosed nude rat tumor xenografted with human SJSA1 cells by RT-PCR method
[9] = Half life in mouse liver microsomes; type: ADME, microsome
[10] = Fraction absorbed of compound by PAMPA; type: ADME
Rattus norvegicus [11] = assay: Upregulation of p21 mRNA expression level in po dosed nude rat tumor xenografted with human SJSA1 cells by RT-PCR method
Rattus norvegicus [12] = assay: Dose normalized Cmax in Sprague-Dawley rat at 3 mg/kg, po; type: ADME, organism-based; conditions: in vivo
[13] = Intrinsic clearance in monkey liver microsomes; type: ADME, Macaca mulatta, microsome; conditions: rhesus monkey
[14] = Half life in Sprague-Dawley rat at 1 mg/kg, iv; type: ADME, organism-based; conditions: in vivo
SJSA-1 [15] = assay: Antitumor activity against human SJSA1 cells xenografted in nude rat assessed as reduction in tumor volume at 1 mg/kg, po qd for 14 days; type: functional; parameters: scale not given: the % may be the effect or the level left
[16] = Half life in monkey liver microsomes; type: ADME, Macaca mulatta, microsome; conditions: rhesus monkey
[17] = Volume of distribution at steady state in Sprague-Dawley rat at 1 mg/kg, iv; type: ADME, organism-based; conditions: in vivo, read-out: Vdss
[18] = Tmax in Sprague-Dawley rat at 3 mg/kg, po; type: ADME, organism-based; conditions: in vivo
[19] = Intrinsic clearance in dog liver microsomes; type: ADME, Canis lupus familiaris, microsome
Rattus norvegicus [20] = assay: Dose normalized AUC in Sprague-Dawley rat at 3 mg/kg, po; type: ADME, organism-based; conditions: in vivo
Rattus norvegicus [21] = assay: Toxicity in nude rat xenografted with human SJSA1 cells assessed as increase in body weight at 1 to 5 mg/kg, po qd for 14 days; type: organism-based; conditions: in vivo, 336 h
[22] = Oral bioavailability in Sprague-Dawley rat at 3 mg/kg; type: ADME, organism-based; conditions: in vivo
Rattus norvegicus [23] = assay: Upregulation of PUMA mRNA expression level in po dosed nude rat tumor xenografted with human SJSA1 cells by RT-PCR method
[24] = Clearance in Sprague-Dawley rat at 1 mg/kg, iv; type: ADME, organism-based; conditions: in vivo
[25] = Half life in dog liver microsomes; type: ADME, Canis lupus familiaris, microsome
Rattus norvegicus [26] = assay: Dose normalized AUC in Sprague-Dawley rat at 1 mg/kg, iv; type: ADME, organism-based; conditions: in vivo
SJSA-1 [27] = assay: Antitumor activity against human SJSA1 cells xenografted in nude rat assessed as tumor regression at 3 mg/kg, po qd for 14 days; type: functional
[28] = Half life in human liver microsomes; type: ADME, microsome
SJSA-1 [29] = assay: Antitumor activity against human SJSA1 cells xenografted in po dosed nude rat assessed as tumor growth inhibition administered once daily for 14 days; type: functional, organism-based

SMILES: COc1ncncc1-c1nc2c(n1C(C)C)C(c1ccc(Cl)cc1C)N(c1cc(Cl)ccc1C)C2=O (racemic)
- GI50 (SJSA-1 [1]): 111 nM
- CLint [2]: 178 µL/min/mg
- half-life [3]: 8 min

SMILES: COc1cccc(F)c1-c1nc2c(n1C(C)C)C(c1ccc(Cl)cc1C)N(c1cc(Cl)ccc1C)C2=O (racemic)
- GI50 (SJSA-1 [1]): 276 nM
- CLint [2]: 450 µL/min/mg
- half-life [3]: 3.3 min

SMILES: COc1ccc(F)cc1-c1nc2c(n1C(C)C)C(c1ccc(Cl)cc1C)N(c1cc(Cl)ccc1C)C2=O (racemic)
- GI50 (SJSA-1 [1]): 228 nM
- CLint [2]: 460 µL/min/mg
- half-life [3]: 3.3 min

SMILES: COc1ccncc1-c1nc2c(n1C(C)C)[C@H](c1ccc(Cl)cc1C)N(c1cc(Cl)ccc1C)C2=O
- GI50 (SJSA-1 [1]): 345 nM
- CLint [2]: 117 µL/min/mg
- half-life [3]: 12 min

SMILES: COc1ncc(-c2nc3c(n2C(C)C)C(c2ccc(Cl)cc2C)N(c2cc(Cl)ccc2C)C3=O)c(OC)n1 (racemic)
- GI50 (SJSA-1 [1]): 26 nM
- CLint [2]: 47 µL/min/mg
- half-life [3]: 30 min

SMILES: COc1ccccc1-c1cc2c(n1C(C)C)C(c1ccc(Cl)cc1C)N(c1cc(Cl)ccc1C)C2=O (configuration not stated)
- GI50 (SJSA-1 [1]): 216 nM

SMILES: COc1ccc(-c2nc3c(n2C(C)C)C(c2ccc(Cl)cc2C)N(c2cc(Cl)ccc2C)C3=O)c(OC)n1 (racemic)
- GI50 (SJSA-1 [1]): 186 nM
- CLint [2]: 69 µL/min/mg
- half-life [3]: 20 min

SMILES: COc1ccccc1-c1nc2c(n1C(C)C)[C@H](c1ccc(Cl)cc1C)N(c1cc(Cl)ccc1C)C2=O
- GI50 (SJSA-1 [1]): 62 to 64 nM
- CLint [2]: 385 µL/min/mg
- half-life [3]: 3.6 min

SMILES: COc1ccccc1-n1nc2c(c1C(C)C)[C@H](c1ccc(Cl)cc1C)N(c1cc(Cl)ccc1C)C2=O
- CLH [4]: 115 µL/min/mg
- CLint [2]: 385 µL/min/mg
- CLH [5]: 495 µL/min/mg

SMILES: COc1ncc(-c2nc3c(n2C(C)C)[C@H](c2ccc(Cl)cc2C)N(c2cc(Cl)ccc2C)C3=O)c(OC)n1
- Tmax [6]: 180 min
- Activity (SJSA-1 [7]): 98%
- Activity (Rattus norvegicus [8]): Dose-dependent effect
- CLH [4]: 72 µL/min/mg
- half-life [9]: 39 min
- Fa [10]: 99%
- Activity (Rattus norvegicus [11]): Dose-dependent effect
- Cmax/dose (Rattus norvegicus [12]): 75 nM/(mg/kg)
- CLH [13]: 20 µL/min/mg
- half-life [14]: 108 min
- Activity (SJSA-1 [15]): 40%
- half-life [16]: 81 min
- Vd [17]: 4.4 L/kg
- Tmax [18]: 120 min
- CLH [19]: 35 µL/min/mg
- AUC/dose (Rattus norvegicus [20]): 719 nM·h
- Activity (Rattus norvegicus [21]): Non-Toxic
- bioavailability [22]: 67%
- GI50 (SJSA-1 [1]): 11 nM
- Activity (Rattus norvegicus [23]): Dose-dependent effect
- clearance [24]: 32 mL/min/kg
- half-life [25]: 40 min
- AUC/dose (Rattus norvegicus [26]): 1080 nM·h
- CLint [2]: 35 µL/min/mg
- CLH [5]: 36 µL/min/mg
- Activity (SJSA-1 [27]): 32%
- half-life [28]: 17 min
- half-life [3]: 39 min
- TGI (SJSA-1 [29]): Dose-dependent effect

SMILES: COc1ncc(-c2nc3c(n2C(C)C)[C@@H](c2ccc(Cl)cc2C)N(c2cc(Cl)ccc2C)C3=O)c(OC)n1
- GI50 (SJSA-1 [1]): 1000 nM
- CLint [2]: 25 µL/min/mg
- half-life [3]: 56 min
